In US9422545B2 (priority 2013, dated 2016):

Columns and labels:
[1] = test system: virulent C. burnetii; parameters: species or system Coxiella burnetii
[2] = test system: 1E4; format: binding, mouse

Substance | number of dead bacteria [1] | inhibition index (A490 without PI-A490 with PI/A490 without PI) [2]
EDTA | significantly higher numbers of dead bacteria | –
SPPWHKHELHRK [m1E44] | – | highest inhibition index
